“Also recorded” adds a separate entry of the source.
What was measured:
CYP3A [1] = test: Study 770-017: effect of ciprofloxacin; assay type: in vivo, human; settings: ciprofloxacin 750 mg q12 h with tezacaftor 50 mg q12 h and ivacaftor 150 mg q12 h
CYP3A [2] = test: Study 006 cohort 1: effect of itraconazole; assay type: in vivo, human; settings: coadministration of itraconazole vs tezacaftor/ivacaftor alone
CFTR = settings: major circulating metabolites in humans; cited from earlier work
P-gp [3] = target: T1, P-gp (Homo sapiens, UniProt P08183); test: Study 006 cohort 2: effect of steady-state tezacaftor/ivacaftor on digoxin; assay type: in vivo; settings: for CL renal: both, human, urine and plasma, oral
T1 sequence (P08183 whole entry): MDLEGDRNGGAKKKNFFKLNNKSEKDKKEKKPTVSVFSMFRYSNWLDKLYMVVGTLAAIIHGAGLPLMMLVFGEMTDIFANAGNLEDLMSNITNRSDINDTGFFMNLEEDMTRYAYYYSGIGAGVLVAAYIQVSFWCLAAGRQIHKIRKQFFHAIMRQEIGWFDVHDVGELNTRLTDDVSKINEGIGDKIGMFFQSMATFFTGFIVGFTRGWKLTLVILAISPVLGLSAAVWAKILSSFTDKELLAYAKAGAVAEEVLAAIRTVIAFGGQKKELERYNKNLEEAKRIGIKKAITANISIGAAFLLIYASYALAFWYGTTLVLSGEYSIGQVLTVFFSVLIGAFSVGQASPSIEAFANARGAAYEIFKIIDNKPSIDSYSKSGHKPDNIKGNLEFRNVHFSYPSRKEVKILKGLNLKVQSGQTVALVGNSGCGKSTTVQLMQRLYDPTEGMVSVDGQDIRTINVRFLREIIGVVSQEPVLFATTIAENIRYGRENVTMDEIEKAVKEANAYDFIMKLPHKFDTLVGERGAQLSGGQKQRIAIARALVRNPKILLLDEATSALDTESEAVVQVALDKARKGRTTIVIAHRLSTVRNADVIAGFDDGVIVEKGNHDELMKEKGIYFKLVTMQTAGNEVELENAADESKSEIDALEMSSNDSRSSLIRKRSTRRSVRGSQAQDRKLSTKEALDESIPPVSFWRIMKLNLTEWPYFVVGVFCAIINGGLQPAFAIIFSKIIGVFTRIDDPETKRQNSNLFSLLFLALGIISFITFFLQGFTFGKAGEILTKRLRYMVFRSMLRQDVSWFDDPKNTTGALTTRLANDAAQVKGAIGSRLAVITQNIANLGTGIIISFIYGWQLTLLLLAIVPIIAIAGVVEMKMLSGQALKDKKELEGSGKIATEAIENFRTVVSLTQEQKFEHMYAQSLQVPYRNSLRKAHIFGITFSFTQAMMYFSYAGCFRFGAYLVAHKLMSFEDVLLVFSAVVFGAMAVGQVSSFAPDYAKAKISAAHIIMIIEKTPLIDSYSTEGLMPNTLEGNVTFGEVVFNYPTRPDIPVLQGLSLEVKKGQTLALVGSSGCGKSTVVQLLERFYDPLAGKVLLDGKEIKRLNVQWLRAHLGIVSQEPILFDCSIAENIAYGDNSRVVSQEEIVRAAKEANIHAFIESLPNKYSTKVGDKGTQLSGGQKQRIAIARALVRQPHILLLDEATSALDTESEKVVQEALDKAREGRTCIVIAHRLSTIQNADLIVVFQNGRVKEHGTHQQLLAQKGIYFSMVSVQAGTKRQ

[4] = cited from earlier work
CYP3A [5] = settings: cited from earlier work
CYP3A [6] = settings: cited from earlier work; remark: listed apart in the source
[7] = tested on: permeability glycoprotein (P‐gp) efflux transporter; settings: ref 3 (tezacaftor), ref 6 (ivacaftor); cited from earlier work
CYP3A [8] = settings: in vitro; cited from earlier work
CYP3A [9] = settings: human hepatocytes and recombinant human CYP; no reference given; cited from earlier work
[10] = Steady-state PK of tezacaftor q.d./ivacaftor twice daily in patients with CF; assay type: in vivo; settings: human, plasma, oral
[11] = cited from earlier work; for Food effect on exposure: fat‐containing food vs fasted state
P-gp [12] = target: T1, P-gp; settings: ivacaftor alone, digoxin as model P‐gp substrate; cited from earlier work
CYP3A [13] = test: Study 006 cohort 2: effect of steady-state tezacaftor/ivacaftor on midazolam; assay type: in vivo, human; settings: midazolam 2.0 mg single dose with/without TEZ 100 mg q.d./IVA 150 mg q12 h, oral, fed, healthy subjects
[14] = digoxin with tezacaftor 100 mg q.d./ivacaftor 150 mg q12 h vs digoxin alone

Compound: CC1(C)c2cc3cc(NC(=O)C4(c5ccc6c(c5)OC(F)(F)O6)CC4)c(F)cc3n2CC(CO)OC1O (centres unmarked) [M1‐TEZ]
- GLSM ratio range for AUC and Cmax with/without ciprofloxacin (CYP3A [1]): 1.17–1.25
- Decrease of AUC with itraconazole (CYP3A [2]): ~ 40%
- Decrease of Cmax with itraconazole (CYP3A [2]): ~ 40%

Compound: CC(C)(C)c1cc(C(C)(C)C(=O)O)c(O)cc1NC(=O)c1c[nH]c2ccccc2c1=O [M6‐IVA]
- GLSM ratio range for AUC and Cmax with/without ciprofloxacin (CYP3A [1]): 0.96−1.10
- Decrease of AUC with itraconazole (CYP3A [2]): 30%
- Pharmacological activity/potency relative to parent (CFTR): not considered pharmacologically active

Compound: C[C@H]1O[C@@H](O[C@H]2[C@@H](O)C[C@H](O[C@H]3[C@@H](O)C[C@H](O[C@H]4CC[C@@]5(C)[C@H](CC[C@@H]6[C@@H]5C[C@@H](O)[C@]5(C)[C@@H](C7=CC(=O)OC7)CC[C@]65O)C4)O[C@@H]3C)O[C@@H]2C)C[C@H](O)[C@@H]1O [Digoxin, digoxin]
- CL renal (P-gp [3]): 121 mL/min
- CL renal (P-gp [3]; 0.5 mg): 128 mL/min
- Increase of AUC with tezacaftor/ivacaftor (P-gp [3]; [14]): 30%
- Increase of Cmax with tezacaftor/ivacaftor (P-gp [3]; [14]): 32%

Compound: CC(C)(C)c1cc(C(C)(C)C)c(NC(=O)c2c[nH]c3ccccc3c2=O)cc1O [ivacaftor]
- Eliminated in the feces after metabolic conversion ([4]; oral ivacaftor): 87.8%
- Urinary excretion as unchanged drug ([4]; oral ivacaftor): negligible
- Total radioactivity recovered in the urine ([4]; oral ivacaftor, ivacaftor and its metabolites): 6.6%
- Decrease in exposure with lumacaftor (CYP3A [5]; ivacaftor administered with lumacaftor): ~ 80%
- CYP3A inhibition, clinical data (CYP3A [6]; ivacaftor alone): weak inhibitor of CYP3A
- P‐gp inhibition in vitro [7]: P‐gp inhibitor in vitro
- Potential for causing DDIs via CYP3A inhibition or induction (CYP3A [8]): low potential
- Metabolic pathway in vitro (CYP3A [9]): primarily metabolized via CYP3A‐mediated oxidation
- Increase of AUC with itraconazole (CYP3A [2]): 15.6 fold
- Increase of Cmax (GLSM ratio) with itraconazole (CYP3A [2]): 8.6 fold
- half-life [10]: 9.3 h
- Food effect on exposure [11]: increased threefold
- P‐gp inhibition, clinical study (P-gp [12]): weak inhibitor of P‐gp; also recorded: mild P‐gp inhibitor

Compound: Cc1ccc(NC(=O)C2(c3ccc4c(c3)OC(F)(F)O4)CC2)nc1-c1cccc(C(=O)O)c1 [lumacaftor, reference compound]
- CYP3A induction (CYP3A [5]): strong inducer of CYP3A

Compound: Cc1ncc2n1-c1ccc(Cl)cc1C(c1ccccc1F)=NC2 [Midazolam, midazolam]
- Effect of TEZ/IVA on PK (CYP3A [13]): ↔
- GLSM ratio (90% CI) with/without TEZ/IVA, AUC (CYP3A [13]): 1.12 (1.01–1.25)
- GLSM ratio (90% CI) with/without TEZ/IVA, Cmax (CYP3A [13]): 1.13 (1.01–1.25)
- Increase of exposure with ivacaftor alone (CYP3A [6]; midazolam coadministered with ivacaftor alone): 50%

Compound: CC(C)(C)c1cc(C(C)(C)CO)c(O)cc1NC(=O)c1c[nH]c2ccccc2c1=O [M1‐IVA]
- GLSM ratio range for AUC and Cmax with/without ciprofloxacin (CYP3A [1]): 0.96−1.10
- Increase of AUC with itraconazole (CYP3A [2]): 3.6 fold
- Increase of Cmax (GLSM ratio) with itraconazole (CYP3A [2]): 1.8 fold
- Pharmacological activity/potency relative to parent (CFTR): approximately one sixth the potency of ivacaftor

Compound: CC(C)(CO)c1cc2cc(NC(=O)C3(c4ccc5c(c4)OC(F)(F)O5)CC3)c(F)cc2n1C[C@@H](O)CO [tezacaftor]
- Administered dose excreted in urine as unchanged drug ([4]; oral 14C‐tezacaftor): Less than 1%
- Dose recovered in urine ([4]; oral 14C‐tezacaftor, mostly as the M2 metabolite): about 14%
- Dose excreted in the feces ([4]; oral 14C‐tezacaftor, unchanged or as the M2 metabolite): 72%
- Mean overall recovery ([4]; oral 14C‐tezacaftor, up to 21 days after the dose): 86%
- P‐gp inhibition in vitro [7]: not an inhibitor
- Potential for causing DDIs via CYP3A inhibition or induction (CYP3A [8]): low potential
- Metabolic pathway in vitro (CYP3A [9]): primarily metabolized via CYP3A‐mediated oxidation; also recorded: direct glucuronidation as a minor metabolic pathway
- Increase of AUC with itraconazole (CYP3A [2]): 4 fold
- Increase of Cmax (GLSM ratio) with itraconazole (CYP3A [2]): 2.8 fold
- half-life [10]: ~156 h
- Dose proportionality of exposure ([11]; doses ranging from 10−300 mg): approximately dose‐proportional
- Food effect on exposure [11]: no food effect

Reference: paper PMC6510372 (Clinical and Translational Science, 2019)
